The text below walks through data of patent publication US8268881B2, “Carboxamide derivatives as muscarinic receptor antagonists” (Pfizer Limited, priority 2005, dated 2012).

T1 sequence (P20309 whole entry): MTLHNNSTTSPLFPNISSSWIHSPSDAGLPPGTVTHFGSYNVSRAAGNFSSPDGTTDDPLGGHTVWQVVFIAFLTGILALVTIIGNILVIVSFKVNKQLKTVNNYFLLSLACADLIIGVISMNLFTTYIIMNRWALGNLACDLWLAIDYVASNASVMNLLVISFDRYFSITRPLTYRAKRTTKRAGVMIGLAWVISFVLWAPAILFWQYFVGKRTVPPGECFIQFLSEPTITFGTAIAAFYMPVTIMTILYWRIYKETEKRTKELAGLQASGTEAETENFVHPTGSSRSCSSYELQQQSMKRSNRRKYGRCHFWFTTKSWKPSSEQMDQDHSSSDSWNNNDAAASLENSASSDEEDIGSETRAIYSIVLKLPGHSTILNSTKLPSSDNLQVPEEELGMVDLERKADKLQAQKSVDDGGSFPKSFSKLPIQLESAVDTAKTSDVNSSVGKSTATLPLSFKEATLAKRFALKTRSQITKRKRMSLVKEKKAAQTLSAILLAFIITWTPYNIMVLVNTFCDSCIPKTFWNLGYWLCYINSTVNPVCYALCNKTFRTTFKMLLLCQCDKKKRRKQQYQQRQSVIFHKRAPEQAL

The assay has as its target T1, human muscarinic M3 receptor (Homo sapiens, UniProt P20309).
T1 construct: expressed in transfected cells
Briefly: hM3 β-Lac potency assay (cell based β-lactamase). As to conditions: CHO cells expressing human M3 receptor, NFAT β-lactamase reporter; inhibition of 80 nM carbamyl choline signal, 4 h; IC50 converted to Ki by Cheng-Prusoff; read-out: Cell based β-lactamase M3 Ki.
For `CC(C)(CCC(C(N)=O)(c1ccccc1)c1ccccc1)N1CC[C@H](OCc2cccc(-c3ccc(O)cc3)c2)C1` [Example 63, 5-{(3S)-3-[(4′-Hydroxybiphenyl-3-yl)methoxy]pyrrolidin-1-yl}-5-methyl-2,2-diphenylhexanamide], the inhibition constant (Ki) stood at 28.7 nM. As for `CC(C)(CCC(C(N)=O)(c1ccccc1)c1ccccc1)N1CC[C@@H](Oc2cccc(O)c2F)C1` [Example 76, 5-[(3R)-3-(2-Fluoro-3-hydroxy-phenoxy)-pyrrolidin-1-yl]-5-methyl-2,2-diphenylhexanamide], the figure is 0.582 nM. The value for `COc1cccc(O[C@@H]2CCN(C(C)(C)CCC(C(N)=O)(c3ccccc3)c3ccccc3)C2)c1` [Example 12, 5-[(3R)-3-(3-Methoxyphenoxy)pyrrolidin-1-yl]-5-methyl-2,2-diphenylhexanamide] was 0.3 nM; that for `CC(C)(CCC(C(N)=O)(c1ccccc1)c1ccccc1)N1CC[C@H](Oc2ccc3cc(O)ccc3c2)C1` [Example 20, 5-{(3S)-3-[(6-Hydroxy-2-naphthyl)oxy]pyrrolidin-1-yl}-5-methyl-2,2-diphenylhexanamide] was 108 nM; that for `COc1ccc(OC2CN(C(C)(C)CCC(C#N)(c3ccccc3)c3ccccc3)C2)cc1` [Example 105, 5-[3-(4-Methoxyphenoxy)azetidin-1-yl]-5-methyl-2,2-diphenylhexanenitrile] was 1.94 nM.
